Test results as given in US11976083B2, “Inhibitors of peptidylarginine deiminases” (Gilead Sciences, Inc., priority 2020, dated 2024).

molecular target: T1, human PAD4 (Homo sapiens, UniProt Q9UM07); test: In vitro PAD4 BAEE biochemical assay; conditions: BAEE substrate 3 mM, 5 nM PAD4, 2 mM calcium chloride; geometric mean of multiple experiments
T1 construct: human PAD4 (NM_012387), A2-P663, was PCR amplified; His-SUMO (N, cleaved yes); made in house; host or cells: E. coli BL21(DE3)
Method in brief: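 Fluorescence read-out (ex 405/em 535 nm) of isoindole formed from ammonia, o-phthalaldehyde and DTT after EDTA stop. Reaction: 5 nM PAD4, 2 mM CaCl2, 3 mM BAEE, 2 h, 25 °C, after 30 min enzyme–compound preincubation. Normalised to BB-Cl-Amidine (50 µM) and DMSO controls.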

T1 sequence (Q9UM07 2-663): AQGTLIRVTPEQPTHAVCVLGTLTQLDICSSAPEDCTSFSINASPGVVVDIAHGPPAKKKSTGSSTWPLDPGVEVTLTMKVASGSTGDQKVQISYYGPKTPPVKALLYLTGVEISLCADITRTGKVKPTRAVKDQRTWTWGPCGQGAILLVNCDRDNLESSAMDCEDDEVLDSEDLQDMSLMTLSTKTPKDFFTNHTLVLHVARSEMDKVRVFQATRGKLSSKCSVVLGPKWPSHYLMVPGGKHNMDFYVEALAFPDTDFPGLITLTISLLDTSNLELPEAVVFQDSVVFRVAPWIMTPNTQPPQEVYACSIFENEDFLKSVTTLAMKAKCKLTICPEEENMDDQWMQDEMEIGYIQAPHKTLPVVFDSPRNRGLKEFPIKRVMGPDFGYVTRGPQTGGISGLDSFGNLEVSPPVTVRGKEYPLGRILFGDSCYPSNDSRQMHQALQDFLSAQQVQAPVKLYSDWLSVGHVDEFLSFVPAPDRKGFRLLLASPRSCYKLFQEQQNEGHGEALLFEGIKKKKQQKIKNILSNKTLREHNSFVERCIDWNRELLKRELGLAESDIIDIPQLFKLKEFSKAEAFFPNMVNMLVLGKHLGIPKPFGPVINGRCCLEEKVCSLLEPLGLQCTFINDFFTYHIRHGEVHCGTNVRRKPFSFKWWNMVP

| SMILES | IC50 [nM] |
| --- | --- |
| COc1cc(C(=O)N2CC[C@@H](OC)[C@@H](N)C2)cc2nc(-c3cc4ccc5nc4n3CCCC(F)(F)C[C@@H]3C[C@@H]3C(=O)N[C@@H]5C)n(C)c12 [Example 858, (2~{R},5~{S},7~{S})-14-[5-[(3~{S},4~{R})-3-amino-4-methoxy-piperidine-1-carbonyl]-7-methoxy-1-methyl-benzimidazol-2-yl]-9,9-difluoro-2-methyl-3,13,19-triazatetracyclo [11.5.2.0^{5,7}.0^{16,20}] icosa-1(19),14,16(20), 17-tetraen-4-one] | 459 |
| COc1cc(C(=O)N2CCC[C@@H](N)C2)cc2nc(-c3cc4ccc5cc4n3CCCCCCC(=O)Nc3ccccc3-5)n(C)c12 [Example 47, 17-[5-[(3~{R})-3-aminopiperidine-1-carbonyl]-7-methoxy-1-methyl-benzimidazol-2-yl]-8,16-diazatetracyclo[14.5.2.0^{2,7}.0^{19,23}] tricosa-1(22),2,4,6,17,19(23),20-heptaen-9-one] | 458 |
| COC[C@]12C[C@H]1CCCCCn1c(-c3nc4cc(C(=O)N5CC[C@@H](OC)[C@@H](N)C5)cc(OC)c4n3C)cc3ccc(nc31)[C@@H](C)NC2=O [Example 864, (2~{R},5~{S),7~{R})-14-[5-[(3~{S},4~{R})-3-amino-4-methoxy-piperidine-1-carbonyl]-7-methoxy-1-methyl-benzimidazol-2-yl]-5-(methoxymethyl)-2-methyl-3,13,19-triazatetracyclo [11.5.2.0^{5,7}.0^{16,20}] icosa-1(19),14,16(20), 17-tetraen-4-one] | 68 |
| COCC1(C)CCCCCCn2c(-c3nc4cc(C(=O)N5[C@H]6CC[C@@H]5[C@H](N)C6)cc(OC)c4n3C)cc3ccc(cc32)[C@@H](C)NC1=O (stereo partly drawn) [Example 341, (11~{R})-17-[5-[(1~{R},2~{R},4~{S})-2-amino-7-azabicyclo[2.2.1]heptane-7-carbonyl]-7-methoxy-1-methyl-benzimidazol-2-yl]-8-(methoxymethyl)-8,11-dimethyl-1,10-diazatricyclo[10.5.2.0^{15,18}]nonadeca-12(19),13,15(18),16-tetraen-9-one] | 59 |
| COc1cc(C(=O)N2CC[C@@H](OC(F)F)[C@@H](N)C2)cc2nc(-c3cc4ccc5nc4n3CCCCCC[C@](C)(C(F)(F)F)C(=O)N[C@@H]5C)n(C)c12 [Example 725, (8~{S},11~{R})-17-[5-[(3~ {S},4~{R})-3-amino-4-(difluoromethoxy)piperidine-1-carbonyl]-7-methoxy-1-methyl-benzimidazol-2-yl]-8,11-dimethyl-8-(trifluoromethyl)-1,10,19-triazatricyclo[10.5.2.0^ {15,18}]nonadeca-12(19),13,15(18),16-tetraen-9-one] | 136 |
| COc1cc(C(=O)N2C[C@H](N)[C@@H]3CC[C@H]2C3)cc2nc(-c3cc4ccc5nc4n3CCCCCOC3(CC3)C(=O)N[C@@H]5C)n(C)c12 [Example 910, (11~{R})-17-[5-[(1~{S},4~ {R},5~{R})-4-amino-2-azabicyclo [3.2.1]octane-2-carbonyl]-7-methoxy-1-methyl-benzimidazol-2-yl]-11-methyl-spiro[7-oxa-1,10,19-triazatricyclo[10.5.2.0^{15,18}]nonadeca-12(19), 13,15(18),16-tetraene-8,1′-cyclopropane]-9-one] | 49 |
| COC1(Cn2c(-c3cc4ccc5nc4n3CCCCC[C@@H]3C[C@H]3C(=O)N[C@@H]5C)nc3cc(C(=O)N[C@H]4CNCC[C@@H]4F)c(F)cc32)CC1 [Example 404, 6-fluoro-~{N}-[(3~{S},4~{S})-4-fluoro-3-piperidyl]-1-[(1-methoxycyclopropyl)methyl]-2-[(2~{R},5~{R},7~{R})-2-methyl-4-oxo-3,13,19-triazatetracyclo[11.5.2.0^{5,7}.0^{16,20}]icosa-1(19),14,16(20),17-tetraen-14-yl]benzimidazole-5-carboxamide] | 83 |
| C[C@H]1NC(=O)[C@@H]2C[C@H]2CCCCCn2c(-c3nc4cc(C(=O)N[C@H]5CNCC[C@@H]5F)c(F)cc4n3[C@@H]3C[C@H]3C(F)F)cc3ccc1nc32 [Example 415, 1-[(1~{R},2~{R})-2-(difluoromethyl)cyclopropyl]-6-fluoro-~ {N}-[(3~{S},4~{S})-4-fluoro-3-piperidyl]-2-[(2~{R},5~{R},7~{R})-2-methyl-4-oxo-3,13,19-triazatetracyclo[11.5.2.0^{5,7}.0^{16,20}]icosa-1(19),14,16(20),17-tetraen-14-yl]benzimidazole-5-carboxamide] | 52 |
| C[C@H]1NC(=O)C(C)(C)CCCCCCn2c(-c3nc4cc(C(=O)N[C@H]5CNCC[C@@H]5F)c(F)cc4n3CC(F)(F)F)cc3ccc1nc32 [Example 419, 6-fluoro-~{N}-[(3~{S},4~{S})-4-fluoro-3-piperidyl]-1-(2,2,2-trifluoroethyl)-2-[(11~{R})-8,8,11-trimethyl-9-oxo-1,10,19-triazatricyclo[10.5.2.0^{15,18}]nonadeca-12(19),13,15(18),16-tetraen-17-yl]benzimidazole-5-carboxamide] | 370 |
| COc1cc(C(=O)N2CCC[C@@H](N)C2)cc2nc(-c3cc4ccc5nc4n3CCCCCc3c(cnn3C)C(=O)N[C@@H]5C)n(C)c12 [Example 170, (2~{R})-16-[5-[(3~{R})-3-aminopiperidine-1-carbonyl]-7-methoxy-1-methyl-benzimidazol-2-yl]-2,8-dimethyl-3,7,8,15,21-pentazatetracyclo[13.5.2.0^{5,9).0^{18,22}] docosa-1(21),5(9),6,16,18(22),19-hexaen-4-one] | 118 |
| COCCOCCn1c(-c2cc3ccc4nc3n2CCCCC[C@@H]2C[C@H]2C(=O)N[C@@H]4C)nc2cc(C(=O)N[C@H]3CNCC[C@@H]3F)c(F)cc21 [Example 427, 6-fluoro-~{N}-[(3~{S),4~{S})-4-fluoro-3-piperidyl]-1-[2-(2-methoxyethoxy)ethyl]-2-[(2~{R},5~{R},7~{R})-2-methyl-4-oxo-3,13,19-triazatetracyclo[11.5.2.0^{5,7}.0^{16,20}]icosa-1(19),14,16(20),17-tetraen-14-yl]benzimidazole-5-carboxamide] | 54 |
| COc1cc(C(=O)N2CC[C@@H](OCC34CC(F)(C3)C4)[C@@H](N)C2)cc2nc(-c3cc4ccc5nc4n3CCCCC[C@@H]3C[C@H]3C(=O)N[C@@H]5C)n(C)c12 [Example 494] | 136 |

Stronger by IC50, values ahead:

| IC50 [nM] | SMILES |
| --- | --- |
| 37 | COc1cc(C(=O)N2[C@H]3CC[C@@H]2[C@H](N)C3)cc2nc(-c3cc4ccc5nc4n3CCCCCCCC(=O)NC5C3CC3)n(C)c12 (stereo partly drawn) [Example 259, 17-[5-[(1˜{R},2˜{R},4˜{S})-2-amino-7-azabicyclo[2.2.1]heptane-7-carbonyl]-7-methoxy-1-methyl-benzimidazol-2-yl]-11-cyclopropyl-1,10,19-triazatricyclo[10.5.2.0^{15,18}]nonadeca-12(19),13,15(18),16-tetraen-9-one] |
| 22 | C[C@H]1NC(=O)[C@@H]2C[C@H]2CCCCCn2c(-c3nc4cc(C(=O)N[C@H]5CNCC[C@@H]5F)c(F)cc4n3CC3(C#N)CC3)cc3ccc1nc32 [Example 406, 1-[(1-cyanocyclopropyl)methyl]-6-fluoro-~{N}-[(3~{S},4~{S})-4-fluoro-3-piperidyl]-2-[(2~{R},5~{R},7~{R})-2-methyl-4-oxo-3,13,19-triazatetracyclo[11.5.2.0^{5,7}.0^{16,20}]icosa-1(19),14,16(20),17-tetraen-14-yl]benzimidazole-5-carboxamide] |
| 33 | COc1cc(C(=O)N2[C@H]3CC[C@@H]2[C@H](N)C3)cc2nc(-c3cc4ccc5nc4n3CCCCC[C@@H](OC)CC(=O)N[C@@H]5C)c(C)n12 [Example 333, (7~{R},11~{R})-17-[7-[(1~{R},2~{R},4~{S})-2-amino-7-azabicyclo[2.2.1]heptane-7-carbonyl)-5-methoxy-3-methyl-imidazo[1,2-a]pyridin-2-yl]-7-methoxy-11-methyl-1,10,19-triazatricyclo[10.5.2.0^{15,18}]nonadeca-12(19),13,15(18),16-tetraen-9-one] |
| 16 | [2H]C1([2H])[C@H](N)[C@@H]2CC[C@@H](C2)N1C(=O)c1cc(OC)c2c(c1)nc(-c1cc3ccc4nc3n1CC(F)(F)CCC[C@@H]1C[C@H]1C(=O)N[C@@H]4C)n2C [Example 765, (2~{R},5~{R},7~{R})-14-[5-[(1~{S},4~{R},5~{R})-4-amino-3,3-dideuterio-2-azabicyclo[3.2.1]octane-2-carbonyl]-7-methoxy-1-methyl-benzimidazol-2-yl]-11,11-difluoro-2-methyl-3,13,19-triazatetracyclo[11.5.2.0^ {5,7}.0^{16,20}]icosa-1(19),14,16(20),17-tetraen-4-one] |
| 28 | COc1cc(C(=O)N2C[C@H](N)[C@@H]3CC[C@H]2C3)cc2nc(-c3cc4ccc5nc4n3CCCCCc3cc(F)ccc3C(=O)N[C@@H]5C)n(C)c12 [Example 900, (2~{R})-17-[5-[(1~{S),4~{R}, 5~{R})-4-amino-2-azabicyclo [3.2.1]octane-2-carbonyl]-7-methoxy-1-methyl-benzimidazol-2-yl]-8-fluoro-2-methyl-3,16,22-triazatetracyclo[14.5.2.0^ {5,10}.0^{19,23}]tricosa-1(22),5(10),6,8,17,19(23),20-heptaen-4-one] |
| 24 | COc1cc(C(=O)N2CCC[C@@H](N)C2)cc2nc(-c3cc4ccc5nc4n3CCCCCCCCC(=O)N3CCC[C@H]53)n(C)c12 [Example 107, (2~{R})-17-[5-[(3~{R})-3-aminopiperidine-1-carbonyl]-7-methoxy-1-methyl-benzimidazol-2-yl]-6,16,22-triazatetracyclo[14.5.2.0^{2,6}.0^{19,23}] tricosa-1(22),17,19(23),20-tetraen-7-one] |
